Measurements: PubChem BioAssay (NCI)
“And” between values parts separate entries of the source, which are not always exact repeats. Equal entries are not always repeated.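 Method: 48-hour compound exposure of cells in 96-well plates, five concentrations, linear interpolation of endpoints. At the GI50, growth is halved. TGI marks complete inhibition of growth.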 Where a SMILES comes first, the peptide text is derived from it. Bridges are numbered along the chain shown (N, C = ends). [ ]: non-standard residue; d: D form. The star is where a group is joined. ξ: configuration not given here. X26 = O=C(/C=C/C=C/C=C/C=C/C=C/C(=O)*)NC1=C(O)CCC1=O; NMeA = CN[C@@H](C)C(=O)O; ξF = NC(Cc1ccccc1)C(=O)O; ξA = CC(N)C(=O)O

How the values were obtained:
Assay in all cases: NCI tumour cell line growth inhibition, 48 h
HL-60(TB) leukemia = system: HL-60(TB) leukemia
HCT-116 colon = system: HCT-116 colon
EKVX NSCLC = system: EKVX NSCLC
MDA-N = system: MDA-N
SF-539 CNS = system: SF-539 CNS
HCT-15 colon = system: HCT-15 colon
SK-MEL-28 melanoma = system: SK-MEL-28 melanoma
RPMI-8226 leukemia = system: RPMI-8226 leukemia
NCI-H522 lung = system: NCI-H522 lung
CCRF-CEM leukemia = system: CCRF-CEM leukemia

| Compound | TGI (HL-60(TB) leukemia) | TGI (HCT-116 colon) | TGI (EKVX NSCLC) | TGI (MDA-N) | TGI (SF-539 CNS) | TGI (HCT-15 colon) | TGI (SK-MEL-28 melanoma) | TGI (RPMI-8226 leukemia) | TGI (NCI-H522 lung) | TGI (CCRF-CEM leukemia) | GI50 (NCI-H522 lung) |
| --- | --- | --- | --- | --- | --- | --- | --- | --- | --- | --- | --- |
| CSc1c(C#N)c(N)n(-c2ccc(C)cc2)c(=O)c1C#N | > 100 µM | > 100 µM | > 100 µM | > 100 µM | > 100 µM | > 100 µM | > 100 µM | > 100 µM | > 100 µM | > 100 µM |  |
| O=C1CC(C(O)(C(F)(F)F)C(F)(F)Cl)CCC1C(O)(C(F)(F)F)C(F)(F)Cl (stereo unspecified) | > 10 µM | > 10 µM | > 10 µM | > 10 µM | > 10 µM | > 10 µM | > 10 µM | > 10 µM | > 10 µM | > 10 µM |  |
| Nc1ccc(-c2nc3ccccc3s2)cc1C(F)(F)F | 36.9 µM | 26.1 µM | 23.9 µM | 26.4 µM | 37.7 µM | 27.6 µM | 33.9 µM | 44.6 µM | 31.6 µM | 95 µM |  |
| Cc1ccc(CC[P+](=O)CCc2ccc(C)nc2)cn1 | > 100 µM | > 100 µM | > 100 µM | > 100 µM | > 100 µM | > 100 µM | > 100 µM | > 100 µM | > 100 µM | > 100 µM |  |
| CC1NC(=O)[C@H](C)N(C)C(=O)[C@@H]2CCCN2C(=O)[C@@H](NC(=O)C(Cc2ccccc2)NC(=O)/C=C/C=C/C=C/C=C/C=C/C(=O)NC2=C(O)CCC2=O)COC(=O)[C@@H]2CCCN2C1=O (stereo partly specified) (X26-[ξF]SP[NMeA][ξA]P; ester 2-C) | > 100 µM | > 100 µM | > 100 µM | > 100 µM | > 100 µM | > 100 µM | > 100 µM | > 100 µM | > 100 µM | > 100 µM |  |
| CCc1c[n+]([O-])c(C)cc1[N+](=O)[O-] | > 100 µM | > 100 µM | > 100 µM | > 100 µM | > 100 µM | 40.1 µM | > 100 µM | > 100 µM | > 100 µM | > 100 µM |  |
| c1csc(-c2ccc(-c3cccs3)c3nsnc23)c1 | 27.1 µM | > 100 µM | > 100 µM | > 73.4 µM | > 51 µM | > 41.4 µM | > 54.2 µM | > 82.4 µM | > 100 µM | 31.5 µM |  |
| NNC1=N/C(=C\c2ccco2)C(Cl)=N1 | 51.4 µM | > 100 µM | > 100 µM | > 100 µM | 57.4 µM | > 100 µM | > 100 µM | 41.8 µM | 92.2 µM | > 100 µM |  |
| Clc1ccc(CSCCc2ccncc2)cc1Cl | 40 µM | 31.5 µM | 57 µM | 46.5 µM | 31.5 µM | 56.7 µM | 50.8 µM | 40.3 µM | 33.8 µM | 44.7 µM |  |
| CCC1=NC(C(F)(F)F)(C(F)(F)F)N=C(N2CCOCC2)O1 | > 100 µM | > 100 µM | > 100 µM | > 100 µM | > 100 µM | > 100 µM | > 100 µM | > 100 µM | > 100 µM | > 100 µM |  |
| COC(=O)CN1c2nc(C#N)c(C#N)nc2N(CC(=O)OC)c2nc(C#N)c(C#N)nc21 | 5.61 µM | 3.77 µM | > 51.3 µM | > 100 µM | 24.2 µM | > 36 µM | > 100 µM | > 100 µM | 3.74 µM | > 24.3 µM |  |
| N#CC(N=Nc1ccc(Cl)cc1)c1nc2ccccc2o1 (stereo unspecified) | > 100 µM | > 100 µM | > 100 µM | > 100 µM | 56.2 µM | > 100 µM | > 100 µM | > 100 µM | 81.1 µM | 45.6 µM |  |
| O=C(Nc1ccccc1F)c1cc2ccc(O)cc2oc1=Nc1ccccc1F | 4.54 µM | 4.01 µM | 6.01 µM | 5.27 µM | 16.5 µM | 6.28 µM | 5.8 µM | 7.84 µM | 3.09 µM | 3.79 µM |  |
| C/C1=C\CC[C@@]2(C)O[C@@H]2C[C@@H](C2(C)CO2)CC/C(C)=C/CC1 (stereo partly specified) | 71.9 µM | 45.5 µM | 36.1 µM | 69.7 µM | 46 µM | 25 µM | 57.6 µM | > 100 µM | 52.6 µM | > 100 µM |  |
| O=c1ccn(C2OC(CO)C(P(=O)(O)O)C2O)c(=O)[nH]1 (stereo unspecified) | > 100 µM | > 100 µM | > 100 µM | > 100 µM | > 100 µM | > 100 µM | > 100 µM | > 100 µM | > 100 µM | > 100 µM |  |
| COc1ccc(-c2c3c([nH]c(=S)c2C#N)CC(C)(C)CC3=O)cc1 | > 100 µM | > 100 µM | > 100 µM | > 100 µM | > 100 µM | > 100 µM | > 100 µM | > 100 µM | > 100 µM | > 100 µM |  |
| COC(=O)c1cc2c(cc1CC1Cc3cc4c(cc3C1)CCC4)CCC2 | 32.7 µM | > 100 µM | > 100 µM | > 100 µM | > 100 µM | > 100 µM | 80.4 µM | 61.4 µM | 80 µM | 45.3 µM |  |
| CCCCNC(=S)N/N=C/c1cccc(C)n1 | > 100 µM | 38.8 µM | > 100 µM | > 100 µM | 96.8 µM | > 100 µM | > 100 µM | > 100 µM | 41.8 µM | 40.2 µM |  |
| COc1ccc(S(=O)(=O)N2C(=O)CCC2C(=O)NN)cc1 (stereo unspecified) | > 100 µM | > 100 µM | > 100 µM | > 100 µM | > 100 µM | > 100 µM | > 100 µM | > 100 µM | > 100 µM | > 100 µM |  |
| COC(=O)CCc1cc(OC)c2c(c1)[C@H](C(=O)OC)[C@@H](c1ccc(O)c(OC)c1)O2 | 36 µM | > 100 µM | > 100 µM | 44.6 µM | > 100 µM | > 100 µM | > 100 µM | 55.5 µM | > 100 µM | > 100 µM |  |
| NCCCN1CCN(CCCNc2ccc3nnn4c5ccccc5c(=O)c2c34)CC1 | > 100 µM | 37.7 µM | 41.1 µM | 31 µM | 36.2 µM | > 100 µM | > 100 µM | > 100 µM | 27.1 µM | 35.7 µM |  |
| C=CCNC(=S)N=Nc1c(O)[nH]c2ccc([N+](=O)[O-])cc12 | > 100 µM | > 100 µM | > 100 µM | > 100 µM | > 100 µM | > 100 µM | > 100 µM | > 100 µM | > 100 µM | 41.5 µM |  |
| COC(C)(C)[C@@H](O)[C@H]1C[C@H](C)[C@@]2(CC[C@]3(C)[C@@H]2CC[C@@H]2[C@@]4(C)CC[C@@H](OC(C)=O)C(C)(C)[C@@H]4C[C@@H](OC4OC(COC(C)=O)C(O)C(O)C4O)[C@]23C)O1 (stereo partly specified) | 4.63 µM | 11.5 µM | 19.5 µM | 17.9 µM | 22.1 µM | 5.75 µM | 20.4 µM | 5.7 µM | 17.4 µM | > 37 µM |  |
| O=C(O)c1cc(-c2ccc3c(O)c(O)ccc3c2)ccc1O | 53.5 µM | 30.3 µM | > 75 µM | > 75 µM | > 75 µM | > 75 µM | > 75 µM | 49.1 µM | > 75 µM | 33.6 µM |  |
| COC(=O)c1c2c(cc3c1CCC3)CCC2 | 38.4 µM | > 100 µM | > 100 µM | > 100 µM | > 100 µM | > 100 µM | > 100 µM | 52.4 µM | > 100 µM | 53.3 µM |  |
| C=C1c2cc3c(cc2CC12Cc1cc4c(cc1C2=O)CCC4)CCC3 (stereo unspecified) | > 100 µM | > 100 µM | > 100 µM | > 100 µM | > 100 µM | > 100 µM | > 100 µM | > 100 µM | > 100 µM | > 100 µM |  |
| COc1nc2ncc([C@@H](OC(C)=O)[C@@H](COC(C)=O)OC(C)=O)nc2c(=O)[nH]1 | > 100 µM | > 100 µM | > 100 µM | > 100 µM | > 100 µM | > 100 µM | > 100 µM | > 100 µM | > 100 µM | > 100 µM | > 100 µM and 41.7 µM |
